The compounds below were run against recombinant human integrin αvβ6 (Homo sapiens (Human), UniProt P06756+P18564) (assay: Solid phase integrin αvβ6 binding assay). Details: IC50 presented in four ranges; read-out: αvβ6 Inhibition IC50 (nM) - range.
Procedure: (§1) Microplates were coated with recombinant human integrin αvβ6 (2 µg/mL) in PBS (100 µL/well 25° C., overnight). The coating solution was removed, washed with wash buffer (0.05% Tween 20; 0.5 mM MnCl2; in 1x TBS). The plate was blocked with 200 µL/well of Block Buffer (1% BSA; 5% sucrose; 0.5 mM MnCl2; in 1x TBS) at 37° C. for 2 h. Dilutions of testing compounds and recombinant TGFβ1 LAP (0.67 µg/mL) in binding buffer (0.05% BSA; 2.5% sucrose; 0.5 mM MnCl2; in 1x TBS) were added. The plate was incubated for 2 hours at 25° C., washed, and incubated for 1 hour with Biotin-Anti-hLAP. Bound antibody was detected by peroxidase-conjugated streptavidin. The IC50 values for testing compounds were calculated by a four-parameter logistic regression.
The compounds tested were compound samples prepared according to procedures described in the Synthetic Examples section, with the stereochemical purity as indicated in the Examples.
as §1, with “A third series of exemplary compounds was selected for testing in the solid phase integrin αvβ6 binding assay. The compounds tested were compound samples prepared according to procedures described in the Synthetic Examples section, with the stereochemical purity as indicated in the Examples. As in Example B1, microplates” for “Microplates”

Sequence of recombinant human integrin αvβ6 (P06756 31-889): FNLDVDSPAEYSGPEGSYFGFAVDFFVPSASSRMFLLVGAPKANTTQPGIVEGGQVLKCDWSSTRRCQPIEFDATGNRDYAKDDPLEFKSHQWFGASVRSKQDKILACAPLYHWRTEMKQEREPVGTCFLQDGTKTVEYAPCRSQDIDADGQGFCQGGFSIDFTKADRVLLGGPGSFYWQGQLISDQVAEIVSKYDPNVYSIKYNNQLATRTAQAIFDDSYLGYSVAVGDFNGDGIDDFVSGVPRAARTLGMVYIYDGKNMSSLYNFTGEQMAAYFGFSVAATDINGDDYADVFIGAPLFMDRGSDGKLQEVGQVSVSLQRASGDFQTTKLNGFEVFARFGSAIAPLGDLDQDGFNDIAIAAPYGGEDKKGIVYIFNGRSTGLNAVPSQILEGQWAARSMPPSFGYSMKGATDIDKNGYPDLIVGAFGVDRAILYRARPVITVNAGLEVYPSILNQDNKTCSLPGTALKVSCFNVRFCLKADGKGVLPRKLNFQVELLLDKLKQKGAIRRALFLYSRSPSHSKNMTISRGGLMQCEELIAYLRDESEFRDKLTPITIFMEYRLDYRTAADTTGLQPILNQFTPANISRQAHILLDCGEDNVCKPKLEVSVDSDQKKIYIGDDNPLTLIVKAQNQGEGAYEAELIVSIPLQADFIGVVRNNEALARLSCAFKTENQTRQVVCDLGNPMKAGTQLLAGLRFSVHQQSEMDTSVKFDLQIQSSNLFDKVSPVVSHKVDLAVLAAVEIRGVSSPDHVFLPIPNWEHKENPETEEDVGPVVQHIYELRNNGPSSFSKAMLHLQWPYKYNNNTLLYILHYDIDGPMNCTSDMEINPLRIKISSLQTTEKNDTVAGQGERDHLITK
Sequence of recombinant human integrin αvβ6 (P06756 890-992 partner): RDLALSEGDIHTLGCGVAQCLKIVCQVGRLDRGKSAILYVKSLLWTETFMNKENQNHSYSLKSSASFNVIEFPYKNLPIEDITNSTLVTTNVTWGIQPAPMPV
Sequence of recombinant human integrin αvβ6 (P18564 22-707): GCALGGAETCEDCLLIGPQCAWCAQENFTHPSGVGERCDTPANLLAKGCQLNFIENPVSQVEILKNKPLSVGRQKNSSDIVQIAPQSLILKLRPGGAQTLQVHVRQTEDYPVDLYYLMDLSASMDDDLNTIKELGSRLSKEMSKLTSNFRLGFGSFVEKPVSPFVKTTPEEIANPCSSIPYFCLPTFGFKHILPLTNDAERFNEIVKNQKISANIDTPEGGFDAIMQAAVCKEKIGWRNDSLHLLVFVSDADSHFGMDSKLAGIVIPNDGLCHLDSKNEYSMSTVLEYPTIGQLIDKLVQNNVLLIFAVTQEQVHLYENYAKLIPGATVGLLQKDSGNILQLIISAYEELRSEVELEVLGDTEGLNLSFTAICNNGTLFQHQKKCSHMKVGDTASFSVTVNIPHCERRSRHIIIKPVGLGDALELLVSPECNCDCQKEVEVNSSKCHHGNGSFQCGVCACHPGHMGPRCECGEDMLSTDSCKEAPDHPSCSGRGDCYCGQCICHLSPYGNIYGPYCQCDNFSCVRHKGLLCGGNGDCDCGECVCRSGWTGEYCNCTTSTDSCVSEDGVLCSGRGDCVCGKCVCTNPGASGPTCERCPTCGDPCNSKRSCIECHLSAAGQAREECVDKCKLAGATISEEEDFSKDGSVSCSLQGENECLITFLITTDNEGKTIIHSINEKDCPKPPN

IC50, < 50 nM:
O=C(O)[C@H](CCN(CCCCc1ccc2c(n1)NCCC2)CCOc1ccccc1)Nc1cc(-c2ccccc2)ncn1 [compound 93], Cc1ccc2c(N[C@@H](CCN(CCCCc3ccc4c(n3)NCCC4)CCOc3ccc(C)nc3)C(=O)O)nc(C)nc2c1 [compound 56], COCCN(CCCCc1ccc2c(n1)NCCC2)CC[C@H](Nc1cc(-n2cccn2)ncn1)C(=O)O [compound 44], CS(=O)(=O)CCN(CCCCc1ccc2c(n1)NCCC2)CC[C@H](Nc1ncnc2ccccc12)C(=O)O [compound 27], Cc1ccc(OCCN(CCCCc2ccc3c(n2)NCCC3)CC[C@H](Nc2ncnc3cccnc23)C(=O)O)cn1 [compound 57], Cc1ncccc1OCCN(CCCCc1ccc2c(n1)NCCC2)CCC(Nc1ncnc2ccccc12)C(=O)O (stereo not shown) [compound 52], O=C(O)[C@H](CCN(CCCCc1ccc2c(n1)NCCC2)CCOc1ccccc1)Nc1ncnc2ccccc12 [compound 28], CO[C@H](C)CN(CCCCc1ccc2c(n1)NCCC2)CC[C@H](Nc1ncnc2[nH]ncc12)C(=O)O [compound 71], O=C(O)[C@H](CCN(CCCCc1ccc2c(n1)NCCC2)CCOc1ccccc1)Nc1ccnc(C(F)(F)F)n1 [compound 92], CN(C)C(=O)CN(CCCCc1ccc2c(n1)NCCC2)CC[C@H](Nc1ccnc(C(F)(F)F)n1)C(=O)O [compound 145], Cc1nc(N[C@@H](CCN(CCCCc2ccc3c(n2)NCCC3)CC2CC(F)(F)C2)C(=O)O)c2ccc(F)cc2n1 [compound 33], CO[C@@H](C)CN(CCCCc1ccc2c(n1)NCCC2)CC[C@H](Nc1ncnc2ccccc12)C(=O)O [compound 25], CC(=O)NCCN(CCCCc1ccc2c(n1)NCCC2)CC[C@H](Nc1ncnc2ccccc12)C(=O)O [compound 63], O=C(O)[C@H](CCN(CCCCc1ccc2c(n1)NCCC2)C1CC1)Nc1ncc(C(F)(F)F)cn1 [compound 114], N#Cc1cnc(N[C@@H](CCN(CCCCc2ccc3c(n2)NCCC3)CCOc2ccc(F)cc2)C(=O)O)nc1 [compound 138], O=C(O)[C@H](CCN(CCCCc1ccc2c(n1)NCCC2)CCC(F)F)Nc1ncnc2ccccc12 [compound 29], COC[C@@H](F)CN(CCCCc1ccc2c(n1)NCCC2)CC[C@H](Nc1ncncc1-c1ccccc1)C(=O)O [compound 110], Cc1nc(N[C@@H](CCN(CCCCc2ccc3c(n2)NCCC3)CCOC2CC2(F)F)C(=O)O)c2ccc(F)cc2n1 (stereo partly shown) [compound 42], COCCN(CCCCc1ccc2c(n1)NCCC2)CC[C@H](Nc1ncnc2cc(F)c(F)cc12)C(=O)O [compound 21], COCCN(CCCCc1ccc2c(n1)NCCC2)CC[C@H](Nc1cc(C)nc(C(F)(F)F)n1)C(=O)O [compound 26], Cn1ncc2c(N[C@@H](CCN(CCCCc3ccc4c(n3)NCCC4)CCOc3ccccc3)C(=O)O)ncnc21 [compound 82], COCCN(CCCCc1ccc2c(n1)NCCC2)CC[C@H](Nc1nccnc1C#N)C(=O)O [compound 67], COCCN(CCCCc1ccc2c(n1)NCCC2)CC[C@H](Nc1ncnc2c(F)cccc12)C(=O)O [compound 20], COCCN(CCCCc1ccc2c(n1)NCCC2)CC[C@H](Nc1nc(C)nc2ccccc12)C(=O)O [compound 10], O=C(O)[C@H](CCN(CCCCc1ccc2c(n1)NCCC2)CCOc1ccc(F)cc1)Nc1ncc(C(F)(F)F)cn1 [compound 139], CCOCCN(CCCCc1ccc2c(n1)NCCC2)CC[C@H](Nc1ncnc2ccccc12)C(=O)O [compound 55], COc1ccc2c(N[C@@H](CCN(CCCF)CCCCc3ccc4c(n3)NCCC4)C(=O)O)ncnc2c1 [compound 41], CO[C@H](C)CN(CCCCc1ccc2c(n1)NCCC2)CC[C@H](Nc1cc(-n2cccn2)ncn1)C(=O)O [compound 77], COC[C@@H](F)CN(CCCCc1ccc2c(n1)NCCC2)CC[C@H](Nc1ncnc2ccccc12)C(=O)O [compound 31], COCCN(CCCCc1ccc2c(n1)NCCC2)CC[C@H](Nc1ncnc2c(C(F)(F)F)cccc12)C(=O)O [compound 15], CO[C@H](C)CN(CCCCc1ccc2c(n1)NCCC2)CC[C@H](Nc1ncc(F)cn1)C(=O)O [compound 78], Cc1nc(N[C@@H](CCN(CCCCc2ccc3c(n2)NCCC3)CCOc2cncc(F)c2)C(=O)O)c2ccc(F)cc2n1 [compound 61], Cc1nc(N[C@@H](CCN(CCCCc2ccc3c(n2)NCCC3)CCOc2cccnc2C)C(=O)O)c2ccc(F)cc2n1 [compound 53], COCCN(CCCCc1ccc2c(n1)NCCC2)CC[C@H](Nc1ccnc(C(F)(F)F)n1)C(=O)O [compound 24], COC[C@@H](F)CN(CCCCc1ccc2c(n1)NCCC2)CC[C@H](Nc1nc(C)nc2cc(F)ccc12)C(=O)O [compound 32], COCCN(CCCCc1ccc2c(n1)NCCC2)CC[C@H](Nc1cc(C(F)F)ncn1)C(=O)O [compound 23], Cc1ccc(OCCN(CCCCc2ccc3c(n2)NCCC3)CC[C@H](Nc2ncnc3ccccc23)C(=O)O)cn1 [compound 59], O=C(O)[C@H](CCN(CCCCc1ccc2c(n1)NCCC2)CCOCC(F)(F)F)Nc1ncnc2ccccc12 [compound 39], O=C(O)[C@H](CCN(CCCCc1ccc2c(n1)NCCC2)CCOc1cncc(F)c1)Nc1ncnc2cccnc12 [compound 60], Cc1nc(N[C@@H](CCN(CCCCc2ccc3c(n2)NCCC3)CCOc2ccc(F)cc2)C(=O)O)c2ccc(F)cc2n1 [compound 40], O=C(O)[C@H](CCN(CCCCc1ccc2c(n1)NCCC2)CCOc1ccccn1)Nc1ncnc2c(Cl)cccc12 [compound 48], COCCN(CCCCc1ccc2c(n1)NCCC2)CC[C@H](Nc1ncnc2cccc(F)c12)C(=O)O [compound 18], Cc1ncccc1OCCN(CCCCc1ccc2c(n1)NCCC2)CC[C@H](Nc1ncnc2cccnc12)C(=O)O [compound 54]

IC50, 50 to 250 nM:
COCCN(CCCCc1ccc2c(n1)NCCC2)CC[C@H](Nc1ncnc2cc(Cl)ccc12)C(=O)O [compound 37], CS(=O)(=O)CCN(CCCCc1ccc2c(n1)NCCC2)CC[C@H](Nc1ncnc2[nH]ncc12)C(=O)O [compound 125], O=C(O)[C@H](CCN(CCCCc1ccc2c(n1)NCCC2)C1CC1)Nc1ncnc2[nH]ncc12 [compound 116], O=C(O)[C@H](CCN(CCCCc1ccc2c(n1)NCCC2)CC1(F)COC1)Nc1ncnc2ccccc12 [compound 147], O=C(O)[C@H](CCN(CCCCc1ccc2c(n1)NCCC2)CCC(F)F)Nc1ncc(C(F)(F)F)cn1 [compound 132], CN(C)C(=O)CN(CCCCc1ccc2c(n1)NCCC2)CC[C@H](Nc1ncc(C(F)(F)F)cn1)C(=O)O [compound 141], O=C(O)[C@H](CCN(CCCCc1ccc2c(n1)NCCC2)CCOc1ccc(F)cc1)Nc1ncnc2[nH]ncc12 [compound 143], O=C(O)[C@H](CCN(CCCCc1ccc2c(n1)NCCC2)CCC(F)F)Nc1ccnc(C2CC2)n1 [compound 135]

IC50, > 1000 nM:
O=C(O)[C@H](CCN(CCCCc1ccc2c(n1)NCCC2)CC(F)F)Nc1ncc(Br)cn1 [compound 96], N#Cc1cnc(N[C@@H](CCN(CCCCc2ccc3c(n2)NCCC3)CC(F)F)C(=O)O)nc1 [compound 118], O=C(O)[C@H](CCN(CCCCc1ccc2c(n1)NCCC2)CC(F)F)Nc1ccncn1 [compound 120], COCCN(CCCCc1ccc2c(n1)NCCC2)CC[C@H](Nc1ccnc2ccccc12)C(=O)O [compound 36], O=C(O)[C@H](CCN(CCCCc1ccc2c(n1)NCCC2)C1CC(F)(F)C1)Nc1ncnc2ccccc12 [compound 9], O=C(O)[C@H](CCN(CCCCc1ccc2c(n1)NCCC2)CC(F)F)Nc1ncncc1-c1ccccc1 [compound 119], O=C(O)[C@H](CCN(CCCCc1ccc2c(n1)NCCC2)CC(F)F)Nc1ncc(C2CC2)cn1 [compound 146], CO[C@H](C)CN(CCCCc1ccc2c(n1)NCCC2)CC[C@H](Nc1cc(-c2ccccc2)ncn1)C(=O)O [compound 128]

IC50, 250 to 1000 nM:
CO[C@H](C)CN(CCCCc1ccc2c(n1)NCCC2)CC[C@H](Nc1ccncn1)C(=O)O [compound 127], CO[C@H](C)CN(CCCCc1ccc2c(n1)NCCC2)CC[C@H](Nc1ncc(C(F)(F)F)cn1)C(=O)O [compound 85]

— patent US20230293519A1, “INTEGRIN INHIBITORS AND USES THEREOF IN COMBINATION WITH OTHER AGENTS” (Pliant Therapeutics, Inc., priority 2021, published 2023)
